The numbers were not newly measured in patent publication US20230058142A1, “LIQUID PHARMACEUTICAL COMPOSITION COMPRISING CYTISINE” (priority 2019, published 2023), which cites them from elsewhere.

This data set addresses nicotinic α4β2 receptors (Homo sapiens, UniProt P17787+P43681). The note with it: read-out: Ki, affinity for nicotinic α4β2 receptors.

nicotinic α4β2 receptors, sequence (P43681 29-627 limits assumed): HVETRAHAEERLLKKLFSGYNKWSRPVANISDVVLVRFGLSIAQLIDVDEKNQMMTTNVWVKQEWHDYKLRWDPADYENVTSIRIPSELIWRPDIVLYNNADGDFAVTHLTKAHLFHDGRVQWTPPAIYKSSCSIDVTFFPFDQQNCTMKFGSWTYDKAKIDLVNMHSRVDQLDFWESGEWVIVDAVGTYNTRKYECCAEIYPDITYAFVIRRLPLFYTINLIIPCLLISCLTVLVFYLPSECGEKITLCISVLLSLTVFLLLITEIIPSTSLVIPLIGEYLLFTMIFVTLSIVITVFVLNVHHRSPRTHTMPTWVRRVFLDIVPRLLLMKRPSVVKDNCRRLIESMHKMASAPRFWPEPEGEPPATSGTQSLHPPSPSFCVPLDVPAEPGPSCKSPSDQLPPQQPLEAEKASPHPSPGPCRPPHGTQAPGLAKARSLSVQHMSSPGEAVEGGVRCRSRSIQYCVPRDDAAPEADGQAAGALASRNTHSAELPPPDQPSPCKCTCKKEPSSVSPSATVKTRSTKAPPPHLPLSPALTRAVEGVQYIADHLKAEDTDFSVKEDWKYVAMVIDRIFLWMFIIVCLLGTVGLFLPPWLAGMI
nicotinic α4β2 receptors, sequence (P17787 26-502): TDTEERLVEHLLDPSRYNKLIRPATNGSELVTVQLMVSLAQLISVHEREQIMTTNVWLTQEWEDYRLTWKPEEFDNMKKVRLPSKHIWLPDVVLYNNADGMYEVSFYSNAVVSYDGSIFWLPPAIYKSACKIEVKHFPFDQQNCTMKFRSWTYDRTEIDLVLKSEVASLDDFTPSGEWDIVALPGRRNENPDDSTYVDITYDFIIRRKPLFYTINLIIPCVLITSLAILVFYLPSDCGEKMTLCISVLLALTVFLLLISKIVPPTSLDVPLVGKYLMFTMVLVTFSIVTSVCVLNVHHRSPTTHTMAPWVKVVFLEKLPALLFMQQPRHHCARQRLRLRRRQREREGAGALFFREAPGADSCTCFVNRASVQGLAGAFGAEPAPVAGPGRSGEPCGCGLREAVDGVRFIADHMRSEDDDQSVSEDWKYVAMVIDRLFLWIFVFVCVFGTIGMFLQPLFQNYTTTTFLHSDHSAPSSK

As a reminder, the Ki is a measure of affinity in units of concentration, obtained from inhibition or displacement. For `O=c1cccc2n1C[C@@H]1CNC[C@H]2C1` [Cytisine, (1R-cis)-1,2,3,4,5,6-hexahydro-1,5-methano-8H-pyrido[1,2-a][1,5]diazocin-8-one], the inhibition constant (Ki) is 450 nM.
